No end group written: not given here.
Key:
[1] = target: T1, Y2 (Homo sapiens, UniProt P49146); assay: Competitive and saturation binding, [^125I]-PYY, U2OS cells with Y2
T1 construct: host or cells: U2OS
T1 sequence (P49146 1-381): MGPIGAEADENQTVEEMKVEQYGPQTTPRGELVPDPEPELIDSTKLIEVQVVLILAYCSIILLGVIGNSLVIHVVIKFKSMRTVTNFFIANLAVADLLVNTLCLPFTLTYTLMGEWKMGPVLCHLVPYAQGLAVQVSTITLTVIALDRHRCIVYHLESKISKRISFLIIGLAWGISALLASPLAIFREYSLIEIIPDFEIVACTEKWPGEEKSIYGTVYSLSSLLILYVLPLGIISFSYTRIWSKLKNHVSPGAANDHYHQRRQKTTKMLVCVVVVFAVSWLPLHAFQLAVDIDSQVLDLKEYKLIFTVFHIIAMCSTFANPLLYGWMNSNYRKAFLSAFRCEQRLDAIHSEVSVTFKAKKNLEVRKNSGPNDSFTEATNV
Method: (§1) Competition binding experiments were performed according to [45]. […] Binding experiments using U2OS cells were optimized and performed in assay buffer (50 mM Tris-Cl pH 7.4, 118 mM NaCl, 5 mM MgCl2, 4.7 mM KCl, 0.1% BSA) for cells stably expressing GHSR and (25 mM HEPES, 120 mM NaCl, 5 mM MgCl2, 4.7 mM KCl, 1 mM CaCl2, 0.5% BSA, 2 g/L glucose) for cells containing receptors Y1, Y2 and Y5. […] Cells were incubated for 60 min at room temperature (RT).
(§2) Experiments were carried out in duplicate at least three times, and Ki was calculated using the Cheng-Prusoff equation.
(§3) Data were analyzed by GraphPad Software (San Diego, CA, USA) and are presented as the means ± SEM. The saturation and competitive binding experiments were analyzed according to [46] using the Cheng-Prusoff equation [33]. The competitive binding curves were plotted compared to the best fit for single-binding site models, and half maximal inhibitory concentration (IC50) values were obtained from nonlinear regression analysis. From saturation binding experiments, the dissociation constant (Kd) and number of binding sites/cell (Bmax) were calculated. Inhibition constants (Ki) were calculated from IC50 values, Kd and the concentration of radioligands.

[2] = target: T2, GHSR (Homo sapiens, UniProt Q92847); assay: Competitive and saturation binding, [^125I]-ghrelin, U2OS cells with GHSR
T2 construct: host or cells: U2OS
Method: as §1, §2, §3

[3] = target: T3, GPR10 (Homo sapiens, UniProt P49683); assay: Intracellular Ca^2+ mobilization, Fura-2, CHO-K1 cells expressing GPR10; assay type: cell-based; details: Fura 2 dye; peptides 10^−12 to 10^−5 M; repeated two times in duplicates
T3 construct: host or cells: CHO-K1
T3 sequence (P49683 1-370): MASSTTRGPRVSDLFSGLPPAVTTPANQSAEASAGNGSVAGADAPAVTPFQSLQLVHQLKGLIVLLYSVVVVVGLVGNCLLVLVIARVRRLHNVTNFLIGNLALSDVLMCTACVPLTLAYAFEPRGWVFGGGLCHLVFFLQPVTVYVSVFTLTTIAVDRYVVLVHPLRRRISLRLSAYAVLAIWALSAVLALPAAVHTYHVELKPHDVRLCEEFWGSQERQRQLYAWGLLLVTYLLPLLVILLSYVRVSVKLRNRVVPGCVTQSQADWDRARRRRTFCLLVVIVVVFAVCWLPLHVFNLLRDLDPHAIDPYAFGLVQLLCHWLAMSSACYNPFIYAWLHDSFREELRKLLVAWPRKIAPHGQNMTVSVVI
Method: Measuring the intracellular Ca^2+ level in CHO-K1 cells containing GRP10 was performed using the calcium-sensitive dye Fura-2 according to the manufacturer’s protocol (Molecular Devices, Sunnyvale, CA, USA). The day before the experiment, cells were seeded at 40,000 cells/well in 96-well plates in growth media and kept at 37 °C in an incubator with 5% CO2 overnight. Peptides were tested at concentrations from 10^−12 to 10^−5 M. Fura-2 fluorescent dye was detected using a FlexStation 3 fluorometric plate reader (Molecular Devices), and excitation was measured at 340 nm and 380 nm and emission at 510 nm.
(§4) Ca^2+ release assay data are shown as the percentage of maximal response, and the results were analyzed by nonlinear regression as log agonist versus response using GraphPad software. Data are representative of at least three experiments, each performed in duplicate.

[4] = target: T4, NPFF-R2 (Homo sapiens, UniProt Q9Y5X5); assay: Intracellular Ca^2+ mobilization, AequoScreen CHO-K1 cells with NPFF-R2; assay type: cell-based; details: CHO-K1 NPFF-R2 aequorin cells; peptides 10^−12 to 10^−5 M; mean ± SEM, three times in duplicates; read-out: EC50 intracellular Ca^2+ release, NPFF-R2
T4 construct: host or cells: CHO-K1 (AequoScreen, co-expressing aequorin)
Method: The intracellular Ca^2+ level was measured using the AequoScreen stable CHO-K1 cell line containing NPFF-R2 purchased from Perkin Elmer according to the manufacturer’s protocol. Cells at 80–90% confluence cultured in media without selective antibiotics were detached (PBS pH 7.4 + 0.5 mM EDTA) and centrifuged. Cells resuspended in phenol red-free DMEM with 0.1% protease-free BSA and 5 µM coelenterazine h (Thermo Fisher Scientific Inc. Brand) were seeded at 50,000 cells/well in 96-well plates and incubated in the dark at RT with gentle agitation for 4 h. Peptides were tested at concentrations from 10^−12 to 10^−5 M. Luminescent light emission was recorded using a FlexStation 3 plate reader.
as §4

[5] = target: T5, KOR (Homo sapiens, UniProt P41145); assay: cell-based
T5 construct: host or cells: CHO-K1

[6] = target: T3, GPR10; assay: Competitive binding, [^125I]-PrRP31, CHO-K1 cells expressing GPR10
[7] = target: T3, GPR10; assay: Beta-lactamase reporter gene assay (FRET), GPR10; assay type: cell-based; details: β-lactamase assay, agonist mode, CHO-K1 cells; mean ± SEM, 2–3 independent experiments in duplicates
[8] = target: T2, GHSR; assay: Beta-lactamase reporter gene assay (FRET), GHSR; assay type: cell-based

T2 sequence (Q92847 whole entry): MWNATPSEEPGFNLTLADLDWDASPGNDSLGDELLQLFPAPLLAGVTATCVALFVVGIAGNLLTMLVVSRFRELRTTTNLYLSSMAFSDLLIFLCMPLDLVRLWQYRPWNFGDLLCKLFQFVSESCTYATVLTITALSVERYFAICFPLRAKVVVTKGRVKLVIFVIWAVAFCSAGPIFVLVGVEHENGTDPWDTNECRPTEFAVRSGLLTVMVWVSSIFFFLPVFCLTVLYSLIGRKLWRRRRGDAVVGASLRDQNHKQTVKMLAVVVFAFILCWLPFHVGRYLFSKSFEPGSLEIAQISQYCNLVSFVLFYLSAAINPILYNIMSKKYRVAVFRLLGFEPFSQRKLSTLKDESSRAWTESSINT
T4 sequence (Q9Y5X5 whole entry): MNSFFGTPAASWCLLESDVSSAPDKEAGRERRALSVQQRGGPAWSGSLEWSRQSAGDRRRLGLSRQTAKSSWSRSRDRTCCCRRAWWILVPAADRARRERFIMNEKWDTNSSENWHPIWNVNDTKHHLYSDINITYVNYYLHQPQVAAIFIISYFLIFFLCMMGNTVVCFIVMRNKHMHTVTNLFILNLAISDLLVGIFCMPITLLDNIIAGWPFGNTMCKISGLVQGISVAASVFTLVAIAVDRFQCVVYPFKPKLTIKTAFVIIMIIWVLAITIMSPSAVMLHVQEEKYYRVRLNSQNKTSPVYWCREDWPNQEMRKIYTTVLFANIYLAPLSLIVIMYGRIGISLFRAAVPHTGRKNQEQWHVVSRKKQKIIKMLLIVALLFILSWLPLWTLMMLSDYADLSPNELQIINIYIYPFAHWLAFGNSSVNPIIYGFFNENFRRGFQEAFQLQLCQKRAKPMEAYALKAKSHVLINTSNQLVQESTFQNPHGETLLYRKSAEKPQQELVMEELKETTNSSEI
T5 sequence (P41145 whole entry): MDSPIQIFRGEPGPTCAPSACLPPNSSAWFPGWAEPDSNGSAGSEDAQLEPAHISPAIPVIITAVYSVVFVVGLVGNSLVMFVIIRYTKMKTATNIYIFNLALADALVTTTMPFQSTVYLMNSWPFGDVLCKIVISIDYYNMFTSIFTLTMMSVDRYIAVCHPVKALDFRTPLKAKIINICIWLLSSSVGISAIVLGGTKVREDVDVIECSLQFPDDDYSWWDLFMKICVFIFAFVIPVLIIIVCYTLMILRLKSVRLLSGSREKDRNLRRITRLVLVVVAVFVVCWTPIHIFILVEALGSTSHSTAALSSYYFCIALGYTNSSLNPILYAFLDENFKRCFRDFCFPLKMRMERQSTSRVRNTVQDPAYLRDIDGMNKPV

**Q.** Which results are given for `CCCCCCCCCCCCCCCC(=O)N[C@@H](CO)C(=O)N[C@@H](CCCNC(=N)N)C(=O)N[C@H](C(=O)N[C@@H](Cc1c[nH]cn1)C(=O)N[C@@H](CCCNC(=N)N)C(=O)N[C@@H](Cc1c[nH]cn1)C(=O)N[C@@H](CO)C(=O)N[C@@H](CCSC)C(=O)N[C@@H](CCC(=O)O)C(=O)N[C@H](C(=O)N[C@@H](CCCNC(=N)N)C(=O)N[C@H](C(=O)N1CCC[C@H]1C(=O)N[C@@H](CC(=O)O)C(=O)N[C@H](C(=O)N[C@@H](CC(N)=O)C(=O)N1CCC[C@H]1C(=O)N[C@@H](C)C(=O)N[C@@H](Cc1c[nH]c2ccccc12)C(=O)N[C@@H](Cc1ccc(O)cc1)C(=O)N[C@@H](C)C(=O)N[C@@H](CO)C(=O)N[C@@H](CCCNC(=N)N)C(=O)NCC(=O)N[C@H](C(=O)N[C@@H](CCCNC(=N)N)C(=O)N1CCC[C@H]1C(=O)N[C@H](C(=O)NCC(=O)N[C@@H](CCCNC(=N)N)C(=O)N[C@@H](Cc1ccccc1)C(N)=O)C(C)C)[C@@H](C)CC)[C@@H](C)CC)[C@@H](C)O)[C@@H](C)CC)[C@@H](C)O` [Palm-PrRP31]?
**A.** Ki [1]: > 10000 nM; Ki [2]: 160 ± 16 nM; Ca^2+ mobilization in CHO-K1 cells expressing GPR10 [3]: stimulated Ca^2+ mobilization; EC50 [4]: 14.2 ± 1.52 nM; EC50 [5]: > 10000 nM

**Q.** With “SRAHQHSMETRTPDINPAWYTGRGIRPVGRF-NH2 [PrRP31, prolactin-releasing peptide 31, reference compound]” as the compound, how does the Ki [6] read?
**A.** 4.58 ± 0.66 nM

**Q.** And the Ki [1]?
**A.** > 10000 nM

**Q.** What about the Ki [2] of the same compound?
**A.** > 10000 nM

**Q.** What about the EC50 [4] of the same compound?
**A.** 89.33 ± 0.84 nM

**Q.** What about the EC50 [7] of the same compound?
**A.** 0.53 ± 0.0705 nM

**Q.** And the EC50 [8]?
**A.** > 10000 nM

**Q.** And the EC50 [5]?
**A.** > 10000 nM
